According to patent publication US20120082632A1, “Topical drug delivery system with dual carriers” (priority 2010, published 2012):

Assays:
[1] = tested on: Staph aureus, MRSA, Klebsiella pneumoniae, E. coli, Proteus vulgaris, Pseudomonas aeruginosa, Enterobacter cloacae, Acinetobacter lwoffi, Acinetobacter …; assay: In-vitro comparison of Lots with different anti-oxidant amounts and control agents (FIGS. 16-27); type: cell-based; conditions: identical size drops; FIG. 16 Staph aureus, FIG. 17 MRSA, FIGS. 18-24 gram-negative cultures, FIG. 25 Enterococcus faecalis
[2] = tested on: MRSA infection and Grade I diabetic ulcer of the left hallux with cellulitus; assay: Study III: human field study, diabetic foot lesion of great toe; type: in vivo; conditions: IV; 8 days following admission
Procedure: In this embodiment, the additional ingredient to hasten a third therapeutic tissue healing effect was added. This embodiment used vitamin D in a small but medically efficacious amount.

[3] = tested on: HL-60 cells; conditions: cited from earlier work
[4] = tested on: mouse embryonic stem cells and embryoid bodies; conditions: cited from earlier work

Compound	zones of inhibition of control agents compared with the formulations of the invention [1]	patient response to treatment for MRSA [2]	amount at which desired cellular responses occurred [3]	subsequent retinoid-induced TGM2 expression after priming by pretreatment [3]	effect on mRNA and protein expression in epigenetic profiles [4]
CN[C@H](CC(C)C)C(=O)N[C@H]1C(=O)N[C@@H](CC(N)=O)C(=O)N[C@H]2C(=O)N[C@H]3C(=O)N[C@H](C(=O)N[C@H](C(=O)O)c4cc(O)cc(O)c4-c4cc3ccc4O)[C@H](O)c3ccc(c(Cl)c3)Oc3cc2cc(c3O[C@@H]2O[C@H](CO)[C@@H](O)[C@H](O)[C@H]2O[C@H]2C[C@](C)(N)[C@H](O)[C@H](C)O2)Oc2ccc(cc2Cl)[C@H]1O [Vancomycin]	considerably reduced zones of inhibition	did not respond	–	–	–
vitamin D	–	–	about 100 nM	increases	–
CO[C@@]1(NC(=O)Cc2cccs2)C(=O)N2C(C(=O)O)=C(COC(N)=O)CS[C@@H]21 [Cefoxicillin]	considerably reduced zones of inhibition	–	–	–	–
CC[C@H]1OC(=O)[C@H](C)[C@@H](O[C@H]2C[C@@](C)(OC)[C@@H](O)[C@H](C)O2)[C@H](C)[C@@H](O[C@@H]2O[C@H](C)C[C@H](N(C)C)[C@H]2O)[C@](C)(O)C[C@@H](C)C(=O)[C@H](C)[C@@H](O)[C@]1(C)O [Erythromycin]	considerably reduced zones of inhibition	–	–	–	–
C[S+](C)[O-] [DMSO, dimethyl sulfoxide]	–	–	less than 2%	increases	upregulation of mRNA and protein expression
